Experimental data from US5424428A, “( -)-[[4-(1,4,5,6-tetrahydro-4-methyl-6-oxo-3-pyridazinyl)phenyl]-hydrazono]p r” (Orion-yhtyma Oy, priority 1991, dated 1995).
Values after ≈ are worked out from the molar mass of the structure shown.

Assays:
[1] = tested on: right ventricular papillary muscle of guinea-pig; experiment: Cardiotonic action in isolated, electrically paced, right ventricular papillary muscle; format: cell-based; settings: for EC50: cardiotonic effect, guinea-pig papillary muscle, normal Tyrode's bath solution
Protocol: Cardiotonic action of the (-) and (+) enantiomers of [[4-(1,4,5,6-tetrahydro-4-methyl-6-oxo-3-pyridazinyl)phenyl]hydrazono]propanedinitrile (I) was studied in isolated, electrically paced, right ventricular papillary muscle of guinea-pig. Experiments were carried out in normal Tyrode's bath solution as described by Otani et al., Japan.

[2] = Bioavailability: concentration of total drug in dog plasma after single dose oral administration; format: in vivo
Protocol: FIG. 1 is a graph depicting the concentration of total [[4-(1,4,5,6-tetrahydro-4-methyl-6-oxo-3-pyridazinyl)phenyl]hydrazono]propanedinitrile in dog plasma over time after single dose oral administration of the racemate and the (-) enantiomer.
Concentration of total [[4-(1,4,5,6-tetrahydro-4-methyl-6-oxo-3-pyridazinyl)phenyl]hydrazono]propanedinitrile in dog plasma after single dose oral administration of the racemate (1 mg/kg) and (-)-enantiomer (0.5 mg/kg) is shown in FIG. 1. Curve A is for the (-)-enantiomer and curve B is for the racemic [[4-(1,4,5,6-tetrahydro-4-methyl-6-oxo-3-pyridazinyl)phenyl]hydrazono]propanedinitrile.

[3] = LD50 given intravenously to rats; settings: rat, in vivo, intravenous
[4] = Water solubility in 67 mM phosphate buffer (pH 2); format: physicochemical
Protocol: The water solubility of (-) enantiomer and racemic mixture of
[[4-(1,4,5,6-tetrahydro-4-methyl-6-oxo-3-pyridazinyl)phenyl]-
hydrazono]propanedinitrite (l) in 67 mM phosphate buffer (pH 2).

Row | Structure (SMILES) | EC50 [1] | dose needed to produce the same plasma concentration level of the total drug substance, compared to racemate ([2]; dog, single dose oral, racemate 1 mg/kg, (-)-enantiomer 0.5 mg/kg, FIG. 1) | bioavailability compared to racemate ([2]; result in words) | potency of (-) enantiomer relative to (+) enantiomer ([1]; cardiotonic, ratio (-) vs (+) enantiomer) | cardiotonic potency ([1]; result in words) | LD50 [3] | solubility ([4]; aqueous buffer, water solubility, 67 mM phosphate buffer (pH 2)) | water solubility of the (-) enantiomer compared to the racemate ([4]; ratio (-) enantiomer / racemate)
1 | CC1CC(=O)NN=C1c1ccc(NN=C(C#N)C#N)cc1 (single isomer, unassigned; (+)) [(+), (+)-[[4-(1,4,5,6-Tetrahydro-4-Methyl-6-Oxo-3-Pyridazinyl)phenyl]Hydrazono]Propanedinitrile] | 2800 nM |  |  |  |  |  |  | 
2 | CC1CC(=O)NN=C1c1ccc(NN=C(C#N)C#N)cc1 (single isomer, unassigned; (-)) [(-) enantiomer, (-)-[[4-(1,4,5,6-Tetrahydro-4-Methyl-6-Oxo-3-Pyridazinyl)phenyl]Hydrazono]Propanedinitrile] | 60 nM | less than half dose is needed to produce the same plasma concentration level of the total drug substance | superior compared to racemate | 47 times | cardiotonic potency is predominantly due to the optically active (-) enantiomer | 57 mg/kg | 29 µg/mL (≈ 103 µM) | over 30 fold
